Results reported in patent US8134015B2, “Compound inhibiting in vivo phosphorous transport and medicine containing the same” (Kyowa Hakko Kirin Co., Ltd., priority 2003, dated 2012).

These molecules were tested against T1, rat NaPi-2b (Rattus norvegicus, UniProt Q9JJ09) (assay: Sodium-dependent phosphate uptake of Xenopus oocytes which expressed NaPi-2b (32P)). Conditions: Xenopus oocytes expressing rat NaPi-2b, 32P radioactive phosphorus; read-out: IC50 (phosphate uptake inhibitory activity).
T1 construct: expressed in transfected cells; host or cells: Xenopus oocytes injected with cRNA
T1 sequence (Q9JJ09 1-695): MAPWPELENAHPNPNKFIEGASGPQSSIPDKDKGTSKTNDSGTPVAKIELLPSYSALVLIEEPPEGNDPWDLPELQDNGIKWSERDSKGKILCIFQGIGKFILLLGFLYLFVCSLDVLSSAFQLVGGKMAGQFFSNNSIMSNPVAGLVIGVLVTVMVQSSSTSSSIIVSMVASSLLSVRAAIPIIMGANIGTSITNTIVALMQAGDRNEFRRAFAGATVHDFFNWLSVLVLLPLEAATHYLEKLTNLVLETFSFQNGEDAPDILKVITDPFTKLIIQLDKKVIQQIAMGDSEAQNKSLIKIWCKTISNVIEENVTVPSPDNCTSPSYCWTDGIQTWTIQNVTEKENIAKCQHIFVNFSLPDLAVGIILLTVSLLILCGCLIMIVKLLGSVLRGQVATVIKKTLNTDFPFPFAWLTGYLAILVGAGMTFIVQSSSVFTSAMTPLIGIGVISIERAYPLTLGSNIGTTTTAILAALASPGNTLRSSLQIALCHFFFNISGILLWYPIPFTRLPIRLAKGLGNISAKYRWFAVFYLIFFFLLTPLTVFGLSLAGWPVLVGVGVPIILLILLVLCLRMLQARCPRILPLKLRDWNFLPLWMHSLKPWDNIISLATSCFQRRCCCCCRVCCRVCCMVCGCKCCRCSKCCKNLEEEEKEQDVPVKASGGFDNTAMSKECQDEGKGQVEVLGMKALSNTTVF
Type: cell-based
Outline: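 Rat NaPi-2b cloned from small-intestine cDNA; cRNA injected into Xenopus oocytes, expression for 2 days. Phosphate uptake inhibition measured with 32P; percent inhibition at 300 μM and 100 μM read from the same inhibition curve.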

Row | Structure (SMILES) | IC50 [µM]
1 | CN(C)CCn1nnnc1SCc1cccc(C(=O)Nc2ccc(Cl)cc2C(=O)N/N=C/c2cccc(O)c2)c1 [Compound 470, N-[4-Chloro-2-(3-hydroxy-benzylidene-hydrazinocarbonyl)-phenyl]-3-[1-(2-dimethylamino-ethyl)-1H-tetrazol-5-ylsulfanylmethyl]-benzamide] | 23.5
2 | CCN(CC)CCN(C)Cc1cccc(C(=O)Nc2ccc(I)cc2C(=O)N/N=C/c2cccc(F)c2)c1 [Compound 472, 3-{[(2-Diethylamino-ethyl)-methyl-amino]-methyl}-N-[2-(3-fluoro-benzylidene-hydrazinocarbonyl)-4-iodo-phenyl]-benzamide] | < 3
3 | CCN(CC)CCN(C)Cc1cccc(C(=O)Nc2ccc(I)cc2C(=O)N/N=C/c2ccc(F)cc2)c1 [Compound 473, 3-{[(2-Diethylamino-ethyl)-methyl-amino]-methyl}-N-[2-(4-fluoro-benzylidene-hydrazinocarbonyl)-4-iodo-phenyl]-benzamide] | < 3
4 | CCN(CC)CCN(C)Cc1cccc(C(=O)Nc2ccc(I)cc2C(=O)N/N=C/c2cccc(C)c2)c1 [Compound 474, 3-{[(2-Diethylamino-ethyl)-methyl-amino]-methyl}-N-[4-iodo-2-(3-methyl-benzylidene-hydrazinocarbonyl)-phenyl]-benzamide] | < 3
5 | CCN(CC)CCN(C)Cc1cccc(C(=O)Nc2ccc(I)cc2C(=O)N/N=C/c2ccc(C)cc2)c1 [Compound 475, 3-{[(2-Diethylamino-ethyl)-methyl-amino]-methyl}-N-[4-iodo-2-(4-methyl-benzylidene-hydrazinocarbonyl)-phenyl]-benzamide] | < 3

Second part, the molecule after the results:

Row | IC50 [µM] | Structure (SMILES)
6 | < 3 | CCN(CC)CCN(C)Cc1cccc(C(=O)Nc2ccc(I)cc2C(=O)N/N=C/c2ccc(C)c(C)c2)c1 [Compound 476, 3-{[(2-Diethylamino-ethyl)-methyl-amino]-methyl}-N-[2-(3,4-dimethyl-benzylidene-hydrazinocarbonyl)-4-iodo-phenyl]-benzamide]
7 | < 3 | CCN(CC)CCN(C)Cc1cccc(C(=O)Nc2ccc(I)cc2C(=O)N/N=C/c2ccc(Cl)c(C(F)(F)F)c2)c1 [Compound 477, N-[2-(4-chloro-3-trifluoromethyl-benzylidene-hydrazinocarbonyl)-4-iodo-phenyl]-3-{[(2-diethylamino-ethyl)-methyl-amino]-methyl}-benzamide]
8 | < 3 | CCN(CC)CCN(C)Cc1cccc(C(=O)Nc2ccc(I)cc2C(=O)N/N=C/c2cccc(OC)c2)c1 [Compound 478, 3-{[(2-Diethylamino-ethyl)-methyl-amino]-methyl}-N-[4-iodo-2-(3-methoxy-benzylidene-hydrazinocarbonyl)-phenyl]-benzamide]
9 | < 3 | CCN(CC)CCN(C)Cc1cccc(C(=O)Nc2ccc(I)cc2C(=O)N/N=C/c2ccc(OC)cc2)c1 [Compound 479, 3-{[(2-Diethylamino-ethyl)-methyl-amino]-methyl}-N-[4-iodo-2-(4-methoxy-benzylidene-hydrazinocarbonyl)-phenyl]-benzamide]
10 | < 3 | CCN(CC)CCN(C)Cc1cccc(C(=O)Nc2ccc(I)cc2C(=O)N/N=C/c2cccc(O)c2)c1 [Compound 480, 3-{[(2-Diethylamino-ethyl)-methyl-amino]-methyl}-N-[2-(3-hydroxy-benzylidene-hydrazinocarbonyl)-4-iodo-phenyl]-benzamide]
11 | 12.1 | CCN(CC)CCN(C)Cc1cccc(C(=O)Nc2ccc(I)cc2C(=O)N/N=C/c2ccc(O)cc2)c1 [Compound 481, 3-{[(2-Diethylamino-ethyl)-methyl-amino]-methyl}-N-[2-(4-hydroxy-benzylidene-hydrazinocarbonyl)-4-iodo-phenyl]-benzamide]

Same assay, conditions: phosphate uptake, oocytes expressing rat NaPi-2b; 300 μM, determined from inhibition curve

Row | inhibition at 300 µM [%] | Structure (SMILES)
12 | 51 | CN(C)CCn1nnnc1SCc1cccc(C(=O)Nc2ccc(Cl)cc2C(=O)N/N=C/c2ccc(O)cc2)c1 [Compound 471, N-[4-Chloro-2-(4-hydroxy-benzylidene-hydrazinocarbonyl)-phenyl]-3-[1-(2-dimethylamino-ethyl)-1H-tetrazol-5-ylsulfanylmethyl]-benzamide]
